Data taken from patent US20240041806A1, “Eyedrops for Inhibiting Myopia Progression in Children and Screening Method for Inhibitor of Myopia Progression in Children” (Tsubota Laboratory, Inc., priority 2020, published 2024).
“Also recorded” adds a separate entry of the source. Where two headings read alike, the source gives them in different places.

Assays:
[1] = tested on: myopia-induced juvenile mouse; assay: Lens-induced myopia (-30 D lens) in juvenile mouse: axial length (SD-OCT) and refraction; type: in vivo, mouse (C57BL6J); details: for axial elongation of myopia-induced eye / myopic refraction of myopia-induced eye / axial elongation of control eye in which myopia had not been induced: eyedrop once a day for 10 days, 60 μM STF, 100 μM other inhibitors; for axial elongation of myopia-induced eye / myopic refraction of myopia-induced eye: -30 D lens eye; for axial elongation of control eye in which myopia had not been induced: compared with DMSO eyedrop
[2] = tested on: lens of myopia-induced juvenile mouse; details: -30 D lens wearing group
Description: It was examined whether or not a difference in the dosage form of 4-PBA affects the change in the lens. In accordance with the description given above in “Experimental Method”, 4-PBA was eye-dropped or intraperitoneally administered to a myopia-induced juvenile mouse, and the thickness of the lens was measured with SD-OCT in the same manner as in the measurement of the axial length.

[3] = tested on: endoplasmic reticulum stress response genes (PERK pathway and ATF6 pathway) in the sclera; details: FIG. 8
Description: A solution of sodium phenylbutyrate in PBS (4-PBA; 200 mg/kg) or tauroursodeoxycholic acid (TUDCA; 100 mg/kg) was intraperitoneally injected (i.p.) every day during the myopia induction period. Quantitative real-time PCR was performed using StepOnePlus Realtime PCR system with PowerUp SYBR Green Master Mix (Applied Biosystems, CA, USA). Expression level was standardized using β-actin. FIG. 8 illustrates change in gene expression obtained after intraperitoneal injection of 4-PBA every day through the myopia induction period. […] Besides, FIG. 10 illustrates axial elongation (a) and refraction change (b) obtained by eyedrop administration of 0.2% or 2% 4-PBA to a mouse during myopia induction. FIG. 11 illustrates axial elongation (b) and refraction change (a) obtained by intraperitoneal injection of TUDCA every day over the myopia induction period.

[4] = eyedrop administration of 2% 4-PBA as printed, 1st and 3rd weeks, FIG. 9

Compound: Cc1cc(=O)oc2c(C=O)c(O)ccc12 [4μ8C]
- axial elongation of myopia-induced eye [1]: neither axial elongation nor myopic refraction was inhibited
- myopic refraction of myopia-induced eye [1]: neither axial elongation nor myopic refraction was inhibited

Compound: C[C@H](CCC(=O)NCCS(=O)(=O)O)[C@H]1CC[C@H]2[C@@H]3[C@@H](O)C[C@@H]4C[C@H](O)CC[C@]4(C)[C@H]3CC[C@]12C [TUDCA, tauroursodeoxycholic acid]
- physiological axial elongation ([1]; intraperitoneal TUDCA 100 mg/kg every day during myopia induction, FIG. 11): did not inhibit physiological axial elongation
- myopic refraction ([1]; intraperitoneal TUDCA 100 mg/kg every day during myopia induction, FIG. 11(a)): myopic refraction is inhibited
- axial elongation (pathologic axial elongation) ([1]; intraperitoneal TUDCA 100 mg/kg every day during myopia induction, FIG. 11(b)): inhibited pathologic axial elongation; also recorded: axial elongation is inhibited

Compound: Sodium phenylbutyrate [4-PBA]
- lens thickening caused by myopia induction (LIM) ([2]; eyedrop administration of 4-PBA, FIG. 14(B)): lens thickening was not caused
- lens thickening caused by myopia induction (LIM) ([2]; intraperitoneal administration of 4-PBA, FIG. 14(A)): did not affect lens thickening
- axial elongation, dose dependence ([1]; eyedrop administration of 0.2% or 2% 4-PBA during myopia induction, FIG. 10(a)): dose-dependent effectiveness was found; also recorded: inhibits axial elongation dose-dependently
- myopic refraction, dose dependence ([1]; eyedrop administration of 0.2% or 2% 4-PBA during myopia induction, FIG. 10(b)): dose-dependent effectiveness was found; also recorded: inhibits myopic refraction dose-dependently
- axial elongation [1, 4]: significantly inhibited to the same extent
- myopic refraction [1, 4]: significantly inhibited to the same extent
- axial elongation ([1]; intraperitoneal 4-PBA 200 mg/kg/day, 1st week and 3rd week of myopia induction (LIM), FIG. 9(a)): the axial elongation is inhibited
- myopic refraction ([1]; intraperitoneal 4-PBA 200 mg/kg/day, 1st week and 3rd week of myopia induction (LIM), FIG. 9(b)): the myopic refraction is inhibited
- expression of endoplasmic reticulum stress response genes in sclera of myopia induced eyes ([3]; 4-PBA 200 mg/kg/day intraperitoneal vs PBS): the increase is inhibited
- expression of genes disposed downstream of the PERK pathway and the ATF6 pathway ([3]; eyedrop administration of 2% 4-PBA as printed): significantly inhibited

Compound: O=C(Nc1cnn(Cc2ccc(C(F)(F)F)cc2C(F)(F)F)c1)c1cc(-c2ccco2)on1 [Ceapin-A7]
- axial elongation of myopia-induced eye [1]: neither axial elongation nor myopic refraction was inhibited
- myopic refraction of myopia-induced eye [1]: neither axial elongation nor myopic refraction was inhibited
- axial elongation of control eye in which myopia had not been induced [1]: the eye axis of the control eye also elongated

Compound: Cn1cc(-c2ccc3c(c2)CCN3C(=O)Cc2cccc(C(F)(F)F)c2)c2c(N)ncnc21 [GSK2606414]
- axial elongation of myopia-induced eye [1]: neither axial elongation nor myopic refraction was inhibited
- myopic refraction of myopia-induced eye [1]: neither axial elongation nor myopic refraction was inhibited
- axial elongation of control eye in which myopia had not been induced [1]: the eye axis of the control eye also elongated
